{
  "source": "PubChem BioAssay AID264",
  "about": "(DTP/NCI, 2004)",
  "test_system": "nude mice, LX-1 lung xenograft intrarenal, tumor weight T/C",
  "assay": "NCI In Vivo Anticancer Drug Screen. Data for tumor model Human Lung LX-1 Xenograft (intrarenal inoculation) in NU/NU Swiss (nude) mice",
  "conditions": "endpoint: mean tumor weight change, higher = larger tumour",
  "outline": "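Compound-treated mice carrying transplanted tumors were compared with vehicle-treated controls. Tumor size was the measured end point, and the value is the treated-group measurement divided by the control-group measurement (T/C).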",
  "key": {"[1]": {"conditions": "dose: 300.0 mg/kg/injection, schedule: Q04DX003 (sc), vehicle: Klucel (hydroxypropylcellulose) (HPC)"}, "[2]": {"conditions": "dose: 600.0 mg/kg/injection, schedule: Q04DX003 (sc), vehicle: Klucel (hydroxypropylcellulose) (HPC)"}, "[3]": {"conditions": "dose: 1200.0 mg/kg/injection, schedule: Q04DX003 (sc), vehicle: Klucel (hydroxypropylcellulose) (HPC)"}},
  "note": "Inconclusive results are not listed.",
  "data": [
    {"smiles": "CN(C)c1ccc2c(N(C)C)cc(N(C)C)nc2c1", "values": [
      {"measurement": "T/C", "setting": "dose: 9.38 mg/kg/injection, schedule: Q04DX003 (sc), vehicle: Klucel (hydroxypropylcellulose) (HPC)", "value": "102 % of control"},
      {"measurement": "T/C", "setting": "dose: 18.75 mg/kg/injection, schedule: Q04DX003 (sc), vehicle: Klucel (hydroxypropylcellulose) (HPC)", "value": "123 % of control"},
      {"measurement": "T/C", "setting": "dose: 37.5 mg/kg/injection, schedule: Q04DX003 (sc), vehicle: Klucel (hydroxypropylcellulose) (HPC)", "value": "96 % of control"},
      {"measurement": "T/C", "setting": "dose: 75.0 mg/kg/injection, schedule: Q04DX003 (sc), vehicle: Klucel (hydroxypropylcellulose) (HPC)", "value": "154 % of control"}
    ]},
    {"smiles": "CC[n+]1c(-c2ccccc2)c2cc(N)ccc2c2ccc(N)cc21", "values": [
      {"measurement": "T/C", "setting": "dose: 15.0 mg/kg/injection, schedule: Q04DX003 (sc), vehicle: saline", "value": "80 % of control"},
      {"measurement": "T/C", "setting": "dose: 30.0 mg/kg/injection, schedule: Q04DX003 (sc), vehicle: saline", "value": "81 % of control"},
      {"measurement": "T/C", "setting": "dose: 60.0 mg/kg/injection, schedule: Q04DX003 (sc), vehicle: saline", "value": "33 % of control"}
    ]},
    {"smiles": "CCN(Cc1ccc(Cl)c(Cl)c1)c1ccc2nc(N)nc(N)c2c1C", "values": [
      {"measurement": "T/C", "setting": "dose: 37.5 mg/kg/injection, schedule: Q04DX003 (sc), vehicle: water", "value": "62 % of control"}
    ]},
    {"smiles": "N/C(=N\\O)c1cn(C2OC(CO)C(O)C2O)c2ncnc(N)c12", "note": "(stereo unspecified)", "values": [
      {"measurement": "T/C", "setting": "dose: 2.5 mg/kg/injection, schedule: Q04DX003 (sc), vehicle: Klucel (hydroxypropylcellulose) (HPC)", "value": "95 % of control"},
      {"measurement": "T/C", "setting": "dose: 5.0 mg/kg/injection, schedule: Q04DX003 (sc), vehicle: Klucel (hydroxypropylcellulose) (HPC)", "value": "99 % of control"},
      {"measurement": "T/C", "setting": "dose: 10.0 mg/kg/injection, schedule: Q04DX003 (sc), vehicle: Klucel (hydroxypropylcellulose) (HPC)", "value": "81 % of control"},
      {"measurement": "T/C", "setting": "dose: 20.0 mg/kg/injection, schedule: Q04DX003 (sc), vehicle: Klucel (hydroxypropylcellulose) (HPC)", "value": "44 % of control"}
    ]},
    {"smiles": "O=c1[nH]cnc2n[nH]nc12", "values": [
      {"measurement": "T/C", "setting": "[1]", "value": "100 % of control"},
      {"measurement": "T/C", "setting": "[2]", "value": "92 % of control"},
      {"measurement": "T/C", "setting": "[3]", "value": "35 % of control"},
      {"measurement": "T/C", "setting": "dose: 2400.0 mg/kg/injection, schedule: Q04DX003 (sc), vehicle: Klucel (hydroxypropylcellulose) (HPC)", "value": "27 % of control"}
    ]},
    {"smiles": "CN(C)CCCNc1c2ccccc2nc2cccc([N+](=O)[O-])c12", "values": [
      {"measurement": "T/C", "setting": "dose: 0.37 mg/kg/injection, schedule: Q04DX003 (sc), vehicle: saline", "value": "117 % of control"},
      {"measurement": "T/C", "setting": "dose: 0.75 mg/kg/injection, schedule: Q04DX003 (sc), vehicle: saline", "value": "100 % of control"},
      {"measurement": "T/C", "setting": "dose: 1.5 mg/kg/injection, schedule: Q04DX003 (sc), vehicle: saline", "value": "95 % of control"}
    ]},
    {"smiles": "CC1(CO)C(O)CCC2(C)C1CCC1CC3CC12CCC3(O)CO", "note": "(stereo unspecified)", "values": [
      {"measurement": "T/C", "setting": "dose: 6.25 mg/kg/injection, schedule: Q01DX010 (sc), vehicle: saline with Tween-80", "value": "181 % of control"},
      {"measurement": "T/C", "setting": "dose: 12.5 mg/kg/injection, schedule: Q01DX010 (sc), vehicle: saline with Tween-80", "value": "58 % of control"},
      {"measurement": "T/C", "setting": "dose: 25.0 mg/kg/injection, schedule: Q01DX010 (sc), vehicle: saline with Tween-80", "value": "78 % of control"},
      {"measurement": "T/C", "setting": "dose: 600.0 mg/kg/injection, schedule: Q01DX010 (sc), vehicle: saline with Tween-80", "value": "67 % of control"}
    ]},
    {"smiles": "COc1cc(Cc2nccc3cc(OC)c(OC)cc23)c(C(C)=O)cc1OC", "values": [
      {"measurement": "T/C", "setting": "dose: 150.0 mg/kg/injection, schedule: Q04DX003 (sc), vehicle: saline", "value": "87 % of control"},
      {"measurement": "T/C", "setting": "dose: 300.0 mg/kg/injection, schedule: Q04DX003 (sc), vehicle: saline", "value": "88 % of control"},
      {"measurement": "T/C", "setting": "dose: 600.0 mg/kg/injection, schedule: Q04DX003 (sc), vehicle: saline", "value": "99 % of control"},
      {"measurement": "T/C", "setting": "dose: 1200.0 mg/kg/injection, schedule: Q04DX003 (sc), vehicle: saline", "value": "87 % of control"}
    ]},
    {"smiles": "COc1ccc2[nH]c3ccc4cc[n+](CCN5CCC(C6CCN(CC[n+]7ccc8ccc9[nH]c%10ccc(OC)cc%10c9c8c7)CC6)CC5)cc4c3c2c1", "values": [
      {"measurement": "T/C", "setting": "dose: 150.0 mg/kg/injection, schedule: Q04DX003 (sc), vehicle: Klucel (hydroxypropylcellulose) (HPC)", "value": "88 % of control"},
      {"measurement": "T/C", "setting": "[1]", "value": "96 % of control"},
      {"measurement": "T/C", "setting": "[2]", "value": "83 % of control"},
      {"measurement": "T/C", "setting": "[3]", "value": "93 % of control"}
    ]},
    {"smiles": "CC(/C=N/N=C(N)N)=N\\N=C(N)N", "values": [
      {"measurement": "T/C", "setting": "dose: 12.5 mg/kg/injection, schedule: Q01DX010 (sc), vehicle: water", "value": "81 % of control"},
      {"measurement": "T/C", "setting": "dose: 25.0 mg/kg/injection, schedule: Q01DX010 (sc), vehicle: water", "value": "78 % of control"},
      {"measurement": "T/C", "setting": "dose: 100.0 mg/kg/injection, schedule: Q01DX010 (sc), vehicle: water", "value": "58 % of control"}
    ]},
    {"smiles": "C=CC(C)(C)n1cc(C2=C(O)C(=O)C(c3cn(C(C)(C)C=C)c4ccccc34)=C(O)C2=O)c2ccccc21", "values": [
      {"measurement": "T/C", "setting": "dose: 50.0 mg/kg/injection, schedule: Q04DX003 (sc), vehicle: Klucel (hydroxypropylcellulose) (HPC)", "value": "63 % of control"},
      {"measurement": "T/C", "setting": "dose: 100.0 mg/kg/injection, schedule: Q04DX003 (sc), vehicle: Klucel (hydroxypropylcellulose) (HPC)", "value": "71 % of control"},
      {"measurement": "T/C", "setting": "dose: 200.0 mg/kg/injection, schedule: Q04DX003 (sc), vehicle: Klucel (hydroxypropylcellulose) (HPC)", "value": "124 % of control"},
      {"measurement": "T/C", "setting": "dose: 400.0 mg/kg/injection, schedule: Q04DX003 (sc), vehicle: Klucel (hydroxypropylcellulose) (HPC)", "value": "83 % of control"}
    ]},
    {"smiles": "COC(=Nc1ccccc1)SSC(C)C", "values": [
      {"measurement": "T/C", "setting": "dose: 300.0 mg/kg/injection, schedule: Q04DX003 (sc), vehicle: saline with Tween-80", "value": "120 % of control"},
      {"measurement": "T/C", "setting": "dose: 600.0 mg/kg/injection, schedule: Q04DX003 (sc), vehicle: saline with Tween-80", "value": "94 % of control"},
      {"measurement": "T/C", "setting": "dose: 1200.0 mg/kg/injection, schedule: Q04DX003 (sc), vehicle: saline with Tween-80", "value": "107 % of control"}
    ]}
  ]
}
